Laboratory results reported in patent US20250295639A1, “METHODS FOR TREATING HEART DISEASES” (Cytokinetics, Incorporated, priority 2024, published 2025).

Test system: patients with obstructive hypertrophic cardiomyopathy (oHCM)
Experiment: FOREST-HCM: standard of care (SoC) medications withdrawal in oHCM patients treated with aficamten
Format: in vivo, human
Text: Safety and Outcomes of Standard of Care Medications Withdrawal in Patients with Obstructive Hypertrophic Cardiomyopathy (oHCM) Treated with Aficamten in FOREST-HCM Trial. Standard of care (SoC) medications for the treatment of obstructive hypertrophic cardiomyopathy (oHCM) are currently recommended as first-line therapy. There are, however, off-target side-effects that often render them poorly tolerated. Patients were classified as receiving SoC therapy (both first line and second line) if treated with at least one drug (beta-blocker [BB], non-dihydropyridine calcium channel blocker [CCB], and/or disopyramide). Patients were eligible for protocol-guided SoC withdrawal after receiving a stable dose of aficamten for ≥4-weeks and after Week 12 of the study, at the discretion of the site investigator. Successful SoC withdrawal was defined as at least a 50% dose-reduction in one medication relative to baseline. All patients were also required to have ≥1 clinical, echocardiographic and biomarker assessment after attempted withdrawal. Adverse events (AE) were prospectively evaluated 1-2 weeks after any SoC withdrawal. […] Independent of attempted withdrawal, patients maintained relief of obstruction, improvement in symptoms and health status, and low cardiac biomarkers (Table 1). In the group with successful SoC withdrawal, no clinically significant differences were observed between pre and post SoC withdrawal attempt (Table 1). Overall, there was a modest reduction in left ventricular ejection fraction (LVEF) of −3.5%±6.0 from baseline, also with no differences between groups.

[1] = No SoC Withdrawal Group, Post (Week 24)
[2] = No SoC Withdrawal Group, Pre (Week 12)
[3] = No SoC Withdrawal Group, Week 24 vs Week 12
[4] = Successful SoC Withdrawal Group, Post SoC withdrawal
[5] = Successful SoC Withdrawal Group, Pre SoC withdrawal
[6] = Successful SoC Withdrawal Group, post vs pre
[7] = of the 68 who underwent withdrawal attempt
[8] = successful SoC withdrawal cohort vs no SoC withdrawal

CCc1nc(-c2ccc3c(c2)CC[C@H]3NC(=O)c2cnn(C)c2)no1 [aficamten, (R)—N-(5-(5-ethyl-1,2,4-oxadiazol-3-yl)-2,3-dihydro-1H-inden-1-yl)-1-methyl-1H-pyrazole-4-carboxamide]
KCCQ CSS, Mean (SD) [1]: 88.5 (12.55)
LVEF, Mean (SD) [1]: 64.4 (5.3) %
LVOT-G, Rest, Mean (SD) [1]: 14.0 (12.6) mmHg
LVOT-G, Valsalva, Mean (SD) [1]: 32.2 (25.2) mmHg
NT-proBNP, median [1]: 158.5 pg/mL
NYHA class I [1]: I: 35 (54.7%) n(%)
NYHA class III [1]: III: 2 (3.1%) n(%)
NYHA class IV [1]: IV: 0 n(%)
hs-cardiac-TnI, median [1]: 6.3 ng/L
KCCQ CSS, Mean (SD) [2]: 87.3 (13.12)
LVEF, Mean (SD) [2]: 65.3 (4.9) %
LVOT-G, Rest, Mean (SD) [2]: 19.5 (17.6) mmHg
LVOT-G, Valsalva, Mean (SD) [2]: 42.2 (26.0) mmHg
NT-proBNP, median [2]: 191.5 pg/mL
NYHA class I [2]: I: 34 (53.19%) n(%)
NYHA class III [2]: III: 3 (4,7%) n(%)
NYHA class IV [2]: IV: 0 n(%)
hs-cardiac-TnI, median [2]: 7.6 ng/L
KCCQ CSS, change [3]: 1.2
LVEF, change [3]: −0.9%
LVOT-G, Rest, change [3]: −5.5 mmHg
LVOT-G, Valsalva, change [3]: −10.0 mmHg
NT-proBNP, change [3]: -3.0 pg/mL
hs-cardiac-TnI, change [3]: -0.5 ng/L
KCCQ CSS, Mean (SD) [4]: 83.8 (18.18)
LVOT-G, Rest, Mean (SD) [4]: 16.6 (13.7) mmHg
LVOT-G, Valsalva, Mean (SD) [4]: 35.6 (29.1) mmHg
NT-proBNP, median [4]: 250.0 pg/mL
NYHA class I [4]: I: 26 (46.4%) n(%)
NYHA class II [4]: II: 26 (46,4%) n(%)
NYHA class III [4]: III: 4 (7.1%) n(%)
NYHA class IV [4]: IV: 0 n(%)
hs-cardiac-TaI, median [4]: 5.8 ng/L
LVEF, Mean (SD) (Successful SoC Withdrawal Group, Post SoC withdrawal, site read echo): 65.5 (6.4) %
KCCQ CSS, Mean (SD) [5]: 80.2 (17.20)
LVOT-G, Rest, Mean (SD) [5]: 13.2 (11.0) mmHg
LVOT-G, Valsalva, Mean (SD) [5]: 27.9 (22.4) mmHg
NT-proBNP, median [5]: 330.0 pg/mL
NYHA class I [5]: I: 23 (41.1%) n(%)
NYHA class II [5]: II: 25(44.6%) n(%)
NYHA class III [5]: III: 8(14.3%) n(%)
NYHA class IV [5]: IV: 0 n(%)
hs-cardiac-TaI, median [5]: 5.8 ng/L
LVEF, Mean (SD) (Successful SoC Withdrawal Group, Pre SoC withdrawal, site read echo): 64.8 (5.8) %
KCCQ CSS, change (95% CI) [6]: 3.5 (−0.5, 7.5)
LVEF, change [6]: 0.6%
LVOT-G, Rest, change [6]: 3.4 mmHg
LVOT-G, Valsalva, change (95% CI) [6]: 7.7 (0.8, 14.6), mmHg
NT-proBNP, change [6]: -68.0 pg/mL
hs-cardiac-TaI, change [6]: 0.0 ng/L
monotherapy patients who later restarted a SoC medication (human, in vivo): 13.2%
serious AEs attributed to SoC withdrawal (human, in vivo): no serious AEs
patients achieving aficamten monotherapy [7]: 44.1%
patients achieving successful SoC withdrawal (at least 50% dose-reduction in one medication) [7]: 92.6%
patients completely discontinuing at least one SoC medication [7]: 61.8%
reduction in LVEF from baseline (mean±SD) (overall): −3.5%
KCCQ CSS, Δ change between cohorts at Week 24 [8]: 2.3
LVEF, Δ change between cohorts at Week 24 [8]: 1.5%
LVOT-G, Rest, Δ change between cohorts at Week 24 [8]: 8.9 mmHg
LVOT-G, Valsalva, Δ change between cohorts at Week 24 [8]: 17.7 mmHg
NT-proBNP, Δ change between cohorts at Week 24 [8]: -65.0 pg/mL
hs-cardiac-TnI, Δ change between cohorts at Week 24 [8]: 0.5 ng/L
